This note sets out measurements from patent US20100190187A1, “Screening Assays for Antagonists and Analyses of Cardiac Hypertrophy” (The Regents of the University of Michigan Office of …, priority 2006, published 2010).

This experiment concerns the target T1, VDRtt (Rattus norvegicus, UniProt P13053).
T1 construct: from tissue; host or cells: rat heart ventricle, crude myocardial membranes (7,700-40,000 x g pellet)
T1 sequence (P13053 1-423): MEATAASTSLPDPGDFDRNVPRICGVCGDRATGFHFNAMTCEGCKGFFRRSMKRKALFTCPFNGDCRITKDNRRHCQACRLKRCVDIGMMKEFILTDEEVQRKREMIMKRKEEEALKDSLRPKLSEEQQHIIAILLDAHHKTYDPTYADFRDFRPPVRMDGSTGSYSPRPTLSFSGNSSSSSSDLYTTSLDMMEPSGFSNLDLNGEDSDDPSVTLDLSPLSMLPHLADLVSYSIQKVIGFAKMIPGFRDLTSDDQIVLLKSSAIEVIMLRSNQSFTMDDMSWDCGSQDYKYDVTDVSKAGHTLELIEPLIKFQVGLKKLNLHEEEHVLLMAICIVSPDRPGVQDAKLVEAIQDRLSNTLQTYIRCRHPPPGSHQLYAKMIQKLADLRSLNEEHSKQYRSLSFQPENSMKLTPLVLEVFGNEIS
Briefly: Competition with [3H] 1α,25(OH)2 vitamin D3 for binding to rat heart membrane preparations. As to conditions: radioligand binding experiments, FIGS. 6 and 7. As for the experimental part: Crude myocardial membranes were prepared as follows: whole hearts were removed from three month old female Sprague-Dawley rats and were cannulated and perfused two times with 10 mls ice-cold DPBS then once with 3 mls of ice-cold TKED lysis buffer (50 mM Tris-HCl, 150 mM KCl, 1.5 mM EDTA, 10 mM dithiothreitol, pH7.4 and a 1/100 dilution of Sigma Protease Inhibitor Cocktail [P8340]). Ventricles were cut away from atria and connective tissue and then minced, transferred to a 13 ml round-bottom Sarstedt tube and washed two times in 10 mls TKED lysis buffer by spinning briefly at full speed in a clinical centrifuge then aspirating. Tissue was kept ice-cold as much as possible. Washed minced ventricle tissue was then homogenized on ice with a Tekmar Tissuemizer in 5 volumes (˜5 mls) of TKED lysis buffer using 10 strokes at setting 30 followed by 5 strokes at setting 50. The resulting homogenate was transferred to a 15 ml Corex tube and centrifuged in a Beckman JA-20 rotor at 8,000 rpm (7,700 g) for 15 minutes at 4° C. The supernatant was transferred to a new 15 ml Corex tube and centrifuged in a Beckman JA-20 rotor at 18,200 rpm (40,000 g) for 25 minutes at 4° C. The resulting membrane pellet was washed once in a few mls TKED lysis buffer, resuspended in 0.5 mls TKED lysis buffer then homogenized with 3 strokes of a 2 ml Wheaton Potter-Elvejhem tissue grinder.
Ligand binding assays to determine the ability of competitors or test compounds to compete with [^3H] […] 1α,25(OH)2 vitamin D3 (specific activity 176 Ci/mmol) and various concentrations of competitor or test compound. Nonspecific binding is determined in the presence of cold 1α,25(OH)2 Vitamin D3 (2 μM) for vehicle and each competitor or test compound. Assays are performed at room temperature for 60 minutes. Reactants are then filtered over glass fiber filters (Whatman GF-C) and washed three times with 5 mls ice-cold TKEDN binding buffer. […] Tritiated [^3H] 1α,25(OH)2 vitamin D3 can be obtained from G.E. Healthcare and dried using a nitrogen evaporator and resuspended in ethanol. 1α,25(OH)2 Vitamin D3 and competitors or test compounds can be obtained from Sigma-Aldrich and diluted in ethanol. Vitamin D5 was obtained from the University of Illinois and was diluted in ethanol.
For the molecule `C=C1/C(=C\C=C2/CCC[C@]3(C)[C@@H]([C@H](C)CCC(O)C(C)(C)O)CC[C@@H]23)C[C@@H](O)CC1O` (stereo partly shown) [1,24,25 trihydroxyvitamin D3], the “binding of vitamin D analogs to VDRtt” value was “binds with various affinities”.

Take `C=C1CCC(O)C/C1=C\C=C1\CCCC2(C)C1CCC2C(C)CCC(O)C(C)(C)O` (stereo not shown) [24,25 dihydroxyvitamin D3]: the “binding of vitamin D analogs to VDRtt” value was “binds with various affinities”.

Consider `C=C1CC[C@H](O)C/C1=C/C=C1\CCC[C@]2(C)[C@@H]([C@H](C)CCCC(C)(C)O)CC[C@@H]12` [25-hydroxyvitamin D3], for which the “binding of vitamin D analogs to VDRtt” value is listed as “binds with various affinities”.

Take `C=C1CC[C@H](O)C/C1=C/C=C1\CCC[C@]2(C)[C@@H]([C@H](C)CC[C@@H](CC)C(C)C)CC[C@@H]12` [Vitamin D5]: the “binding of vitamin D analogs to VDRtt” value is reported as “binds with various affinities”.
